The structures appear in SMILES notation. pKi: −log10 of the molar value.

Experiment [1] concerns the target T1, A II-induced contraction in the rabbit aorta (Oryctolagus cuniculus, UniProt P34976).
T1 construct: A II-induced contraction in the rabbit aorta; from tissue; host or cells: rabbit aorta
T1 sequence (P34976 1-359): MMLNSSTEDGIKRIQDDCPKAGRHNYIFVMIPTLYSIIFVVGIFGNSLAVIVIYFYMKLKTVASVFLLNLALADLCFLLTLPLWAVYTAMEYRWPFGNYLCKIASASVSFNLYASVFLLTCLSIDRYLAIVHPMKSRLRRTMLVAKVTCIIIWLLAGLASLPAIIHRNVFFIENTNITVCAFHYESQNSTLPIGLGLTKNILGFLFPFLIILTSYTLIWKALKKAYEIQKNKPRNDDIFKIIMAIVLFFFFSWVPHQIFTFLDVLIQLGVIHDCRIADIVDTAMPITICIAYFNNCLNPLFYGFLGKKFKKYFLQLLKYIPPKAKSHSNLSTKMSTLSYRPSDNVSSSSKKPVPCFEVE
The experiment in a line: inhibition of the A II-induced contraction in the rabbit aorta (in vitro). The format is cell-based. Particulars: read-out: pA2 (converted). An excerpt: (§1) For the characterization and the evaluation of the effectiveness of the compounds of the invention, in vitro tests (such as the inhibition of the A II-induced contraction in the rabbit aorta and the displacement of ^125 I-Sar^1 -Ile^8 -AT II or [H^3 ] AT II in the rat adrenal cortex) and an in vivo test (the inhibition of the A II-induced pressory response in the ganglio-blocked normotensive rat) were selected.

The subject of experiment [2] is A II-induced pressory response. The experiment in a line: inhibition of the A II-induced pressory response in the ganglio-blocked normotensive rat (in vivo). Particulars: iv.
Text: as §1

A further experiment has as its target A II receptor. The experiment in a line: receptor binding test: displacement of 125I-Sar1-Ile8-AT II or [H3] AT II in the rat adrenal cortex.
Text: The compounds described in the present invention act as antagonists at the A II receptor level.
as §1

As usually defined, the ED50 is the dose that gives a 50% effect, or the effect in half of the subjects. High values mean a need for a large dose, low ones an effect at a small dose. `CCCCc1nc(-c2ccccc2C(=O)O)cn1Cc1ccc(-c2ccccc2-c2nnn[nH]2)cc1` [Example 10, 2-Butyl-4-(2-carboxyphenyl)-1-[[2'-(tetrazol-5-yl) -biphenyl-4-yl]methyl]-1H-imidazole]: the Kb in experiment [1] was 10 nM. Further, the ED50 in experiment [2] was 0.52 mg/kg.
One may read the pKi as the Ki on a negative log10 scale, so that one unit is a factor of ten. Regarding `CCCCc1nc(-c2cccc[n+]2[O-])cn1Cc1ccc(-c2ccccc2-c2nn[nH]n2)cc1` [Example 10e, 2-butyl-4-(pyridin-2-yl-N-oxide)-1-[[2'-(tetrazol-5-yl)biphenyl-4-yl]methyl]-1H-imidazole], at A II receptor, the pKi is 8.19. This molecule came in with an ED50 in experiment [2] of 0.54 mg/kg.
